Source: US20220089600A1, “TGFß INHIBITOR AND PRODRUGS” (FUNDACIÓ INSTITUT DE RECERCA BIOMÈDICA (IRB BARCELONA), priority 2018, published 2022)

Columns and labels:
[1] = tested on: TGFβ signaling (12×CAGA-Firefly_Luc reporter) in HEK293T cells; experiment: In vitro CAGA-Luciferase reporter assay; assay type: cell-based; details: Homo sapiens, HEK-293T, 5 ng/ml TGFB1, 16h, read-out: IC50, TGFβ signaling inhibition (CAGA-Luciferase)
Description: HEK293T cells were purchased from the ATCC and cultured in DMEM supplemented with L-glutamine and 10% fetal bovine serum (Life Technologies) at 37° C. and 5% CO2. The cells were seeded in 24-well plates and transfected with plasmids encoding 12×CAGA-Firefly_Luc and Tk-Renilla_Luc (75 and 10 ng per well, respectively), using polyethylenimine (Polysciences) as transfection reagent. After 7h, medium was replaced for starvation medium (DMEM+0.05% FBS). […] Luciferase activity was measured 16h later using the Dual Luciferase Assay kit (Promega): media were aspirated, and cells were lysed in 200 μl passive lysis buffer (kit) for 20 minutes. Bioluminescence was measured in a Berthold Lumat LB6507 luminometer (18 μl reagents, 10 seconds measurements). […]
When adding the luciferase substrate (luciferin) to the cell lysates, emission of light implies an active TGF-β pathway due to the production of pSMAD2/3-SMAD4, whereas no or little observed light would imply inhibition of the pathway by the inhibitor. Finally, the results could be normalized by the addition of Stop & Glo® which quenches the firefly luciferase enzyme/substrate and activates the Renilla transfection control, producing light which was again measured by the luminometer and used to normalize the data.

[2] = tested on: MTO129 liver metastases; experiment: Mouse liver metastasis initiation/formation assay with MTOs; assay type: in vivo; details: for Efficacy (Cure rate): two weeks, mice with no metastases; for metastatic tumor growth inhibitory capacity (bioluminescence): day 3 until day 14
Description: Mouse tumor organoids (MTOs) are derived from compound transgenic mice (conditional mutations in Apc, Kras, Trp53 and Tgfbr2, as well as bearing Lgr5-EGFP/CreER^T2) of the C57BL6/J strain and cultured as described in Tauriello et al. 2018 Nature 554(7693): 538-543. doi: 10.1038/nature25492. Organoids are tumor epithelial cells grown in a 3D matrix where they adopt an organotypic architecture, typically as spheroids with a lumen. In this way, cells retain a relatively normal polarity (which means that the outside surface, inside/luminal surface and cell-cell contacts are individually specialized), which is more physiological than in conventional 2D cell culture.
In all experiments described in present invention MTO129 were used (Tauriello et al. Nature. 2018).
In patients, treatment doses were reduced to 80 to 150 mg b.i.d in a regime of 14 days on-14 days off.
MTOs expressing a luciferase reporter were measured by bioluminescence imaging, using retroorbital injection of 50 μl 15 mg/ml D-luciferin potassium salt (Resem BV). Photons per second from the region spanning thorax/abdomen were quantified and normalized to the measure at the day of injection.
Control mice were treated with 150 μl of vehicle.
In the experiment shown in FIG. 13, potency of the indicated compounds to inhibit metastasis formation was assessed. Mice were treatments with indicated compounds started two days after MTO129 transplantation and continued during two weeks. Mice were sacrificed at 4 weeks post transplantation and liver metastases (LiMs) were counted by eye on fixed livers.

[3] = In vivo toxicity, histopathology; parameters: species or system mouse; details: for Sternum side effect, mice affected per mice tested / Long bones side effect, mice affected per mice tested: two weeks
Description: Number of cured mice, i.e. mice with no metastases at experimental end points, were score. Intestines, skin samples, hearts, thoracic skeletons and limbs of these mice were fixed in 10% formalin, phosphate buffered (Sigma). Soft tissues were embedded in paraffin blocks, sectioned and stained with haematoxylin & eosin. Bones were first decalcified for 2 weeks before embedding, sectioning and staining. An experienced pathologist analyzed tissues for histopathological abnormalities. […] Furthermore, the cartilage ossification zone at the ends of the long bones was analysed for defects in the hypertrophic zone.

[4] = tested on: MTO129 liver metastases; details: Tauriello et al. Nature 2018 (10×); cited from earlier work
[5] = biological target: T1, LigF (Sphingobium sp., UniProt P30347); experiment: In vitro fluorescence assay with purified LigF; assay type: biochemical, Sphingobium sp. strain SYK-6; details: 30 μM substrate, 15 μg/ml LigF, 1 mM glutathione, room temperature
T1 construct: made in house; host or cells: E. coli BL21 (DE3) Rosetta lysS
T1 sequence (P30347 1-257): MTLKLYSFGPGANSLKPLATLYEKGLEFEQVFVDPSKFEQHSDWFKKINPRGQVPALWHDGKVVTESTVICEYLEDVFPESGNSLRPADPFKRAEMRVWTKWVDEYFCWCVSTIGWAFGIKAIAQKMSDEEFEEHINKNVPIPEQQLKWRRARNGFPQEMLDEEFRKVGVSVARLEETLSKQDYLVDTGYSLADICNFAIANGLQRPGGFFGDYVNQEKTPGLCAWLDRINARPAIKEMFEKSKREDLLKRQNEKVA
Description: To test the enzymatic activity of LigF, pure LigF protein was expressed by the Protein Expression Core Facility within the IRB Barcelona by inserting the His-tagged LigF DNA into a pOPINF vector and expressed in E. coli BL21 (DE3) Rosetta IysS cells. After expression and lysis, the protein was purified by using a nickel column followed by gel filtration. Noteworthy, the His tags were not removed from the protein after purification.
For in vitro fluorescence assays, purified LigF was diluted to 15 μg/ml in 20 mM Tris-HCl (pH 7.5), 1 mM glutathione and 30 μM 4-methylumbelliferone acetovanillone (MUAV) model compound was added.
Reactions were performed in a 96-well solid polystyrene plate (Corning) and measured with a top-well plate reader (BioTek FL600 fluorometer) at 360 excitation, 485 emission and sensitivity 100.
Due to a rapid rate of production of 4-methylumbelliferone (4-MU) owing to the cleavage of the beta-ether bond of compound MUAV, the protocol described by Masai (E. Masai et al., J. Bacteriol. 2003, 185, 1768-75) was modified by lowering the LigF enzyme concentration. With this optimized protocol, compound MUAV was incubated at room temperature in the presence of a buffer, glutathione (GSH) and LigF, and followed the cleavage by observing the production of 4-MU by fluorescence. […] Enzyme LigF cleaved product MUAV in approximately 30-40 min (FIG. 6).

[6] = biological target: T2, LigF expressed in HEK293T cells (Sphingobium sp., UniProt P30347); experiment: Fluorescence assay in HEK293T cells stably expressing LigF; assay type: cell-based
T2 construct: expressed in transfected cells; host or cells: HEK293T (lentiviral pLenti PGK puro)
Description: […]. At time points after addition of various concentrations of MUAV, namely 10, 30, and 100 μM, culture medium was taken for measurements of 4-MU fluorescence.

## Cc1cccc(-c2nn3c(c2-c2ccnc4ccc(C(N)=O)cc24)CCC3)n1 [Galunisertib, reference compound]
[1]
  IC50: 359 nM
[2]; 1x dose
  Efficacy (Cure rate): 0%
[2]; 3x dose
  Efficacy (Cure rate): ~70%
[2]; 9x dose
  Efficacy (Cure rate): ~100%
[2]; 9× dose, as seen in FIG. 3
  metastatic tumor growth inhibitory capacity: highly effective
[2]; FIG. 4, 1× dose
  metastatic tumor growth inhibitory capacity (bioluminescence): not effective
[2]; FIG. 4, 3× dose
  metastatic tumor growth inhibitory capacity (bioluminescence): mostly effective
[2]; oral, divided b.i.d.
  effective dose (>50% efficacy): 480 mg/kg/day
[3]; 1x dose
  Combined side effects per number tested: 0/5
  Toxicity (%): 0%
  Sternum side effect, mice affected per mice tested: 0/5
[3]; 1× doses
  pathological analysis of the skin and intestine: No pathological anomalies
[3]; 3x dose
  Combined side effects per number tested: 1/9
  Toxicity (%): 11%
  Long bones side effect, mice affected per mice tested: 0/5
  Sternum side effect, mice affected per mice tested: 1/4
[3]; 9x dose
  Combined side effects per number tested: 6/10
  Toxicity (%): 60%
  Long bones side effect, mice affected per mice tested: 2/3
  Sternum side effect, mice affected per mice tested: 4/7
[3]; 9× dose equivalent
  toxic dose (toxicity >50%): 1440 mg/kg/day
[4]
  doses needed to effectively treat metastatic cancers: up to 1600 mg/kg/day

## COc1cc(C(=O)COc2ccc3c(C)cc(=O)oc3c2)ccc1O [MUAV, 7-(2-(4-hydroxy-3-methoxyphenyl)-2-oxoethoxy)-4-methyl-2H-chromen-2-one]
[5]
  time for cleavage by LigF: 30 to 40 min
[6]; HEK293T expressing LigF, 10, 30, 100 μM
  cleavage of ether bond (4-MU fluorescence): dose-dependent increase in fluorescence
[6]; HEK293T with empty vector (no LigF), 100 μM
  cleavage of ether bond (4-MU fluorescence): No cleavage
